# Test results as given in ChEMBL document CHEMBL4665727, “Discovery of biphenyl pyrazole scaffold for neurodegenerative diseases: A novel class of acetylcholinesterase-centered multitargeted ligands” (Bioorg Med Chem Lett, 2020).
# Activity calls are given as the source filed them. The rule behind the calls is not given here.
# Columns and labels:
# SH-SY5Y = assay: Protection against amyloid beta oligomer-induced cytotoxicity in human SH-SY5Y cells expressing wild-type Tau assessed as cell viability at 10 uM by MTT assay; format: functional; conditions: read-out: Activity
# Acetylcholinesterase [1] = target: T1, Acetylcholinesterase (Homo sapiens, UniProt P22303); assay: Inhibition of AChE (unknown origin) using acetylthiocholine iodide as substrate by UV-vis spectrophotometry based Ellman's method
# T1 sequence (P22303 whole entry): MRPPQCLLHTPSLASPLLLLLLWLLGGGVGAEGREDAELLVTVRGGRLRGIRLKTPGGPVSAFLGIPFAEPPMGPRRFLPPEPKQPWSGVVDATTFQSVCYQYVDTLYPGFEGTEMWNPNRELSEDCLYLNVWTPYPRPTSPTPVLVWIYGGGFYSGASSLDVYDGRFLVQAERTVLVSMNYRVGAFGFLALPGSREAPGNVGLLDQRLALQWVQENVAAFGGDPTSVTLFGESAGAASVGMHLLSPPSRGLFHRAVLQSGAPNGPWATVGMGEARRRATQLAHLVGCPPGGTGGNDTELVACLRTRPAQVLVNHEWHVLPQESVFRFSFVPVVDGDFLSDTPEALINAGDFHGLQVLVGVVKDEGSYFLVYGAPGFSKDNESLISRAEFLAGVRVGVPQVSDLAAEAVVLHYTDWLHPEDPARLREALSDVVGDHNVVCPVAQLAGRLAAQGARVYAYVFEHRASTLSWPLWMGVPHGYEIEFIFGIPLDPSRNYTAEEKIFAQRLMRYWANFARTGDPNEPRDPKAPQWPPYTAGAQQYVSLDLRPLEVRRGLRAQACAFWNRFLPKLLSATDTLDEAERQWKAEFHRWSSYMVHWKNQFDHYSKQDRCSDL
# Acetylcholinesterase [2] = target: T1, Acetylcholinesterase; assay: Mixed inhibition of AChE (unknown origin) using acetylthiocholine iodide as substrate by UV-vis spectrophotometry based Lineweaver-burk plot analysis
# [3] = Permeability in human Caco-2 cells; format: ADME, cell-based
# [4] = target: T2, Microtubule-associated protein tau (Homo sapiens, UniProt P10636); assay: Binding affinity to tau (unknown origin) assessed as dissociation constant by SPR analysis
# T2 sequence (P10636 whole entry): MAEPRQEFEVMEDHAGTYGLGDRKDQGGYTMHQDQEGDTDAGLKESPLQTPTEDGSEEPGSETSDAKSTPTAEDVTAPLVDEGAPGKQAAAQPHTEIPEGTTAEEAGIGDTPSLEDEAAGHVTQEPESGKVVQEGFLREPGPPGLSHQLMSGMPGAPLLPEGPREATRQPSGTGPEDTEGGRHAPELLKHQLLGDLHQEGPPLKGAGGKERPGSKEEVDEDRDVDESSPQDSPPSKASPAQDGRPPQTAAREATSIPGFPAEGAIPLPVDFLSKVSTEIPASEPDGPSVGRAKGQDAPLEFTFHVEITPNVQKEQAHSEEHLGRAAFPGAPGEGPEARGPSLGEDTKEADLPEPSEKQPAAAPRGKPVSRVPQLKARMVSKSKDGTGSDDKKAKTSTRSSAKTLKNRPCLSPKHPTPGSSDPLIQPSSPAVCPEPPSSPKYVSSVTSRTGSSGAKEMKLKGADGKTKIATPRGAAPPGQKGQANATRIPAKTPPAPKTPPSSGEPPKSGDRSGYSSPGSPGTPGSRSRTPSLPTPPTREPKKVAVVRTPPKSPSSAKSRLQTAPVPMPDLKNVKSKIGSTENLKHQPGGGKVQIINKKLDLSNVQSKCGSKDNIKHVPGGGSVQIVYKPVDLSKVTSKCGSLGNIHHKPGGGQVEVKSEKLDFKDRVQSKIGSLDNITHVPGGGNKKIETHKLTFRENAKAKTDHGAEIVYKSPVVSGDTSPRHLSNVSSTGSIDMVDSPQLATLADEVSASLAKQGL
# [5] = Permeability of compound by PAMPA-BBB assay
# [6] = target: T2, Microtubule-associated protein tau; assay: Binding affinity to tau (unknown origin) assessed as dissociation constant by microscale thermophoresis assay
# HEL 299 = assay: Cytotoxicity against HEL 299 cells by MTT assay; format: cell-based; conditions: human
# [7] = target: T2, Microtubule-associated protein tau; assay: Binding affinity to tau (unknown origin) assessed as dissociation constant by isothermal titration calorimetry
# [8] = target: T2, Microtubule-associated protein tau; assay: Inhibition of tau oligomerization in human […] cells by TR-FRET assay; format: cell-based
# [9] = Stability of compound in gastric fluid; format: physicochemical; conditions: simulated gi fluid
# [10] = target: T2, Microtubule-associated protein tau; assay: Binding affinity to tau (unknown origin) assessed as exothermal interaction by isothermal titration calorimetry
# [11] = Stability of compound in intestinal juice
# Acetylcholinesterase [12] = target: T1, Acetylcholinesterase; assay: Binding affinity to AChE (unknown origin) assessed as dissociation constant by SPR analysis
# [13] = Metabolic stability in human plasma; format: ADME, cell-free
smiles,measurement,setting,value
CN(C)c1ccc2c(c1)Sc1cc(N(C)C)ccc1N2 [HYDROMETHYLTHIONINE],viability at 10 µM,SH-SY5Y,32.1%
Nc1c2c(nc3ccccc13)CCCC2 [TACRINE],viability at 10 µM,SH-SY5Y,29.5%
CC(C)c1ccc2c(c1)c(SC(C)(C)C)c(CC(C)(C)C(=O)O)n2Cc1ccc(Cl)cc1,viability at 10 µM,SH-SY5Y,52.4%
CCn1cc(CNCc2c[nH]nc2-c2ccc(-c3ccccc3)cc2)cn1,IC50,Acetylcholinesterase [1],350 nM
same,inhibition,Acetylcholinesterase [2],Active
same,permeability,[3],Permeable
same,Kd,[4],590 nM
same,Papp,[5],33.5 ×10⁻⁶ cm/s
same,Kd,[6],920 nM
same,Activity,HEL 299,Non-Toxic
same,Kd,[7],860 nM
same,EC50,[8],250 nM
same,Stabilty,[9],Stable
same,deltaH,[10],-36.9 kcal/mol
same,Stability,[11],Stable
same,viability at 10 µM,SH-SY5Y,75.1%
same,Kd,Acetylcholinesterase [12],1410 nM
same,Stabilty,[13],Stable
COc1cc2c(cc1OC)C(=O)C(CC1CCN(Cc3ccccc3)CC1)C2 (centres undefined) [DONEPEZIL],viability at 10 µM,SH-SY5Y,39.3%
